Measurements taken from patent US20150065416A1, “NOVEL DRUG COMBINATION” (FAB PHARMA SAS, priority 2013, published 2015).

How the values were obtained:
[1] = system: A. baumannii SAN strain; experiment: Bactericidal activity (time kill kinetics, Example 5); format: cell-based, Acinetobacter baumannii; settings: alone at 2×MIC
Method: In addition, a second set of experiments involved the testing of compound(I)/additional antibacterial agent combinations of 2×/2×MIC. Samples were taken at 0, 3, 6 and 24 hours in order to determine colony forming units (CFU/mL).

[2] = system: A. baumannii isolates; experiment: Checkerboard testing (compound (I)/antibacterial agent interaction, FIC index); format: cell-based, Acinetobacter baumannii; settings: Acinetobacter baumannii
Method: Checkerboard interaction studies were performed using 5 isolates from each of the sub-groups and time kill studies were performed using 3 isolates from each sub-group.
Checkerboards (20 isolates, 5 per sub-group) were prepared so as to contain multiple concentrations of compound (I) with different additional antibacterial agents (amikacin, gentamicin, colistin, meropenem and tobramycin) as follows:
Serial two-fold dilutions of the antimicrobial agents alone or in combination in wells of 96 well microtiter plates were inoculated with the appropriate inoculum so that each well contained approximately 4-5×10^4 CFU/ml. Plates were incubated at 35° C. for 16-20 hours. Combination concentrations were tested between 0.25×MIC and 2×MIC. Growth and sterility controls were also included in each plate.
Synergy, indifference and antagonism were calculated based upon the use of the fractional inhibitory concentration (FIC) indices as described by Pillai, Moellering & Eliopoulos (2005) whereby:
Synergism=FIC index of ≦0.5 Indifference=FIC index >1 but ≦4 Additivity >0.5 to 1 Antagonism=FIC index of >4
Checkerboard studies were carried out as described in General Procedures using twenty different A. baumannii isolates with 5 per sub-group of: susceptible, amikacin-resistant, colistin-resistant and meropenem-resistant.

[3] = system: A. baumannii isolates; experiment: Time kill study (Example 4); format: cell-based, Acinetobacter baumannii; settings: for MIC: Acinetobacter baumannii, read-out: MIC; for Time to kill 99.9%: alone
Method: A total of 12 isolates were tested (three per sub-group either susceptible, meropenem-resistant, amikacin-resistant or colistin-resistant). Two combinations were tested per isolate. Time-kill kinetics were performed by testing compound (I) and an additional antibacterial agent (amikacin, colistin and meropenem) individually at 1× and 4× the corresponding MIC of each antibacterial agent. […] Samples were taken at 0, 2, 4, 8 and 24 hours in order to determine colony forming units (CFU/mL).
Time-kill studies were carried out as described in General Procedures using combinations of compound (I) with amikacin, meropenem and colistin, respectively.

[4] = system: A. baumannii SAN-94040; experiment: Mouse model of A. baumannii pneumonia, Study 1: survival; format: in vivo, Acinetobacter baumannii
Method: The bacterial inoculum was prepared in order to obtain a suspension containing 10^8 CFU/mL of Acinetobacter baumannii in saline.
Experimentations were performed with six-week old female C3H/HeN mice (18-20 g, Breeding Centre JANVIER (Ile saint Genest Mayenne 53)) because of their particular susceptibility to Acinetobacter baumannii and the reproducibility of the results (inbreeding in the breed). Each mouse was individually marked and housed in cages containing five animals/cage under ventilated and controlled (temperature and humidity) atmosphere.
The mice were rendered transiently neutropenic by 2 intra-peritoneal (IP) injections of 150 μL of cyclophosphamide (Endoxan® 150 mg/kg) 4 (D-4) and 3 (D-3) days before the Acinetobacter baumannii inoculation (Day 0). This transient immunosuppression was sufficient to facilitate the development of the A. baumannii pneumonia while allowing the recovery of the neutrophil influx 2 (Day 2) days after inoculation in order to avoid or limit a systemic bacterial dissemination.
Mice were anesthetized by a mixture of oxygen and isoflurane. The bacterial inoculation was performed on Day 0 by intra-tracheal installation using an endotracheal catheter (50 μl of the suspension, thus 5.106 CFU). The positioning of the catheter in the trachea (instead of in the oesophagus) was checked by a “ring test”. The bacterial count in lungs was checked for all study groups by sacrificing one mouse immediately after inoculation.
Survival observations were assessed twice daily, up to 4 days post infection. The survival rates were compared with the Chi-square test or the Fisher exact test as appropriate. The survival curves were compared by the Kaplan-Meier method.
The aim of this experiment was to assess the […], with compound (I) via intra-peritoneal route at 200 mg/kg 3 times daily (every 8 hours) for 1 day alone and in combination with meropenem at 50 mg/kg 3 times daily (every 8 hours) for 1 day or with amikacin at 18 mg/kg 3 times daily (every 8 hours) for 1 day.

[5] = Study 1, 24 h after infection, doses as E210
[6] = Study 1, 48 h after infection, doses as E210

For `NCC[C@H](O)C(=O)N[C@@H]1C[C@H](N)[C@@H](O[C@H]2O[C@H](CN)[C@@H](O)[C@H](O)[C@H]2O)[C@H](O)[C@H]1O[C@H]1O[C@H](CO)[C@@H](O)[C@H](N)[C@H]1O` [amikacin], the “effect in time-kill study when tested alone” value [1] was “bactericidal”, the MIC ([2]; A. baumannii 441142, colistin-resistant, read-out: MIC) was over 1020 µg/mL and the MIC ([2]; A. baumannii 441160, colistin-resistant, read-out: MIC) was over 1020 µg/mL. It also gave an MIC ([2]; A. baumannii 463996, colistin-resistant, read-out: MIC) of 8 µg/mL, an MIC ([2]; A. baumannii 466936, colistin-resistant, read-out: MIC) of 64 µg/mL and an MIC ([2]; A. baumannii 517303, colistin-resistant) of 128 µg/mL. For the same molecule, the MIC ([2]; A. baumannii 618649, meropenem-resistant, read-out: MIC) was 4 µg/mL, the MIC ([2]; A. baumannii 625917, meropenem-resistant, read-out: MIC) was 4 µg/mL and the MIC ([2]; A. baumannii 628760, susceptible, read-out: MIC) was 8 µg/mL. For the same molecule, the MIC ([2]; A. baumannii 637723, amikacin-resistant, read-out: MIC) was 256 µg/mL, the MIC ([2]; A. baumannii 638115, amikacin-resistant, read-out: MIC) was 1020 µg/mL and the MIC ([2]; A. baumannii 650216, meropenem-resistant, read-out: MIC) was 4 µg/mL. For the same molecule, the MIC ([2]; A. baumannii 655932, amikacin-resistant, read-out: MIC) was 512 µg/mL, the MIC ([2]; A. baumannii 661954, amikacin-resistant, read-out: MIC) was 512 µg/mL and the MIC ([2]; A. baumannii 667848, meropenem-resistant, read-out: MIC) was 4 µg/mL. For the same molecule, the MIC ([2]; A. baumannii 668116, susceptible, read-out: MIC) was 2 µg/mL, the MIC ([2]; A. baumannii 668239, amikacin-resistant, read-out: MIC) was over 1020 µg/mL and the MIC ([2]; A. baumannii 670348, susceptible, read-out: MIC) was 8 µg/mL. For the same molecule, the MIC ([2]; A. baumannii 671050, meropenem-resistant, read-out: MIC) was 8 µg/mL, the MIC ([2]; A. baumannii 672190, susceptible, read-out: MIC) was 4 µg/mL and the MIC ([2]; A. baumannii 674340, susceptible, read-out: MIC) was 4 µg/mL. The MIC ([3]; isolate MPM-R-1) was 4 µg/mL, the MIC ([3]; isolate MPM-R-2) was 8 µg/mL and the MIC ([3]; isolate MPM-R-3) was 4 µg/mL. The MIC ([3]; isolate Sus-1) was 2 µg/mL, the MIC ([3]; isolate Sus-2) was 4 µg/mL and the MIC ([3]; isolate Sus-3) was 4 µg/mL. The “Time to kill 99.9%” value ([3]; MPM-R-1, 1xMIC) was 1.4 h, the “Time to kill 99.9%” value ([3]; MPM-R-1, 4xMIC) was 1.2 h and the “Time to kill 99.9%” value ([3]; MPM-R-2, 1xMIC) was 1.3 h. The “Time to kill 99.9%” value ([3]; MPM-R-2, 4xMIC) was 1.2 h, the “Time to kill 99.9%” value ([3]; MPM-R-3, 1xMIC) was 1.4 h and the “Time to kill 99.9%” value ([3]; MPM-R-3, 4xMIC) was 1.2 h. The “Time to kill 99.9%” value ([3]; Sus-1, 1xMIC) was 1.7 h, the “Time to kill 99.9%” value ([3]; Sus-1, 4xMIC) was 1.2 h and the “Time to kill 99.9%” value ([3]; Sus-2, 4xMIC) was 1.2 h. For the same molecule, the “Time to kill 99.9%” value ([3]; Sus-3, 1xMIC) was 1.3 h, the “Time to kill 99.9%” value ([3]; Sus-3, 4xMIC) was 1.3 h and the “effect in time-kill studies when tested alone” value ([3]; alone at 1× or 4×MIC) was “generally bactericidal”. The “survivors (%)” value ([4]; Study 1, 0 h after infection, doses as E210) was 100%, the No. of survivors [4, 5] was 12 and the “survivors (%)” value [4, 5] was 86%. For the same molecule, the No. of survivors [4, 6] was 1, the “survivors (%)” value [4, 6] was 17% and the No. of survivors ([4]; Study 1, 72 h after infection, doses as E210) was 0. The No. of survivors ([4]; Study 1, 96 h after infection, doses as E210) was 0 and the No. of survivors ([4]; Study 1, C3H/HeN mice, 0 h after SAN-94040 infection, compound (I) 200 mg/kg, amikacin 18 mg/kg, meropenem 50 mg/kg q 8 h I.P.) was 14.
